The source of these data is ChEMBL document CHEMBL4251700, “Novel Staphyloxanthin Inhibitors with Improved Potency against Multidrug Resistant Staphylococcus aureus” (ACS Med Chem Lett, 2018).

Structures are written as SMILES. Residue numbers refer to the chain shown, from its start. pIC50: −log10 of the molar value. Active and inactive are the calls of the source. The rule behind the calls is not given here.

Data set [1] deals with Staphylococcus aureus. The data set is described as follows: Induction of sensitization to immune clearance towards Staphylococcus aureus Mu50 infected in human whole blood assessed as bacterial killing by measuring bacterial survival after 6 hrs by serial dilution method relative to control. It counts as functional.
The subject of data set [2] is Staphylococcus aureus. The data set is described as follows: Growth inhibition of vancomycin-intermediate Staphylococcus aureus Mu50 at 0.2 mM incubated overnight measured at 30 mins interval. The following applies: 0.5 h, 200 µM. It is filed as organism-based.
The test system of data set [3] is Staphylococcus aureus. The data set is described as follows: Antibacterial activity against linezolid-resistant Staphylococcus aureus NRS271 infected in BALB/c mouse assessed as reduction of bacterial burden in liver at 0.1 mg, ip bid administered at 12 hrs prior to bacterial infection dosed at 12 intervals for 4.5 days. It is filed as functional, organism-based.

For data set [4], the system named is Staphylococcus aureus. In words: Antibacterial activity against linezolid-resistant Staphylococcus aureus NRS271 infected in BALB/c mouse assessed as log reduction of colony forming units in liver at 0.4 mg, ip bid for 3.5 days administered 6 hrs post bacterial infection measured 84 hrs post infection. It is filed as functional.
The test system of data set [5] is Staphylococcus aureus. In words: Antibacterial activity against linezolid-resistant Staphylococcus aureus NRS271 infected in BALB/c mouse assessed as reduction of bacterial burden in heart at 0.1 mg, ip bid administered at 24 hrs prior to bacterial infection dosed at 12 intervals for 4.5 days.
For data set [6], the system named is Staphylococcus aureus. The data set is described as follows: Antibacterial activity against vancomycin-intermediate Staphylococcus aureus Mu50 infected in BALB/c mouse assessed as reduction of bacterial burden in liver at 0.1 mg, ip bid for 3.5 days administered 6 hrs post bacterial infection measured 84 hrs post infection. It counts as functional, organism-based.

Data set [7] concerns Staphylococcus aureus. In words: Growth inhibition of methicillin-resistant Staphylococcus aureus USA300 LAC at 0.2 mM incubated overnight measured at 30 mins interval. It counts as organism-based. To be noted: 0.5 h, 200 µM.
Data set [8] is described as follows: Cytotoxicity against human HepG2 cells after 72 hrs by CCK8 assay. It counts as cell-based. (In general: Tetrazolium dyes change colour on reduction, which living cells bring about.)
Data set [9] addresses T1, 4,4'-diapophytoene desaturase (4,4'-diaponeurosporene-forming) (Staphylococcus aureus (strain Newman)) (UniProt O07855).
T1 sequence (whole entry): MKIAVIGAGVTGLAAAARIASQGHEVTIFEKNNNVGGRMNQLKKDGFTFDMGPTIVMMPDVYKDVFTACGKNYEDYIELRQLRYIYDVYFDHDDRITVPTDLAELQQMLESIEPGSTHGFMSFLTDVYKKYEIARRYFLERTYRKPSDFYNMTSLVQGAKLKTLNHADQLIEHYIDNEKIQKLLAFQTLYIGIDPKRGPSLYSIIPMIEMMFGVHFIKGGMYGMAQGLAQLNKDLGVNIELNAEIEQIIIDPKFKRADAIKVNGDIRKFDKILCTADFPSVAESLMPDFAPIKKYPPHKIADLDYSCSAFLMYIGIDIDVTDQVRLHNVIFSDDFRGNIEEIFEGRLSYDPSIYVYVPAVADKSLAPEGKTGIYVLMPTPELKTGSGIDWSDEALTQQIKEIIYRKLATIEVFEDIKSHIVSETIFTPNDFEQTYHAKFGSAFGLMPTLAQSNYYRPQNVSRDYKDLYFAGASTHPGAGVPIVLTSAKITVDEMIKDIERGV
In words: Inhibition of CrtN in Staphylococcus aureus Newman assessed as H2O2-induced bacterial death by measuring reduction in bacterial survival at 1 uM pretreated for 24 hrs followed by H2O2 addition measured after 30 mins by serial dilution method. The following applies: Staphylococcus aureus subsp. aureus str. Newman.

For data set [10], the target named is T2, 4,4'-diapophytoene desaturase (4,4'-diaponeurosporene-forming) (Staphylococcus aureus (strain MW2)) (UniProt Q8NUQ6).
T2 sequence (whole entry): T1 sequence (whole entry) with R500Q
The data set is described as follows: Inhibition of CrtN in Staphylococcus aureus USA400 MW2 assessed as H2O2-induced bacterial death by measuring reduction in bacterial survival at 1 uM preincubated for 24 hrs followed by H2O2 addition measured after 30 mins by serial dilution method. To be noted: Staphylococcus aureus subsp. aureus MW2.

In data set [11] the target is T3, 4,4'-diapophytoene desaturase (4,4'-diaponeurosporene-forming) (Staphylococcus aureus (strain Newman), UniProt O07855).
T3 sequence (O07855 whole entry): T1 sequence (whole entry)
In words: Inhibition of Staphylococcus aureus Newman […]-tagged CrtN expressed in Escherichia coli BL21(DE3))/pET28a::CrtN assessed as reduction in staphyloxanthin levels using diapophytoene as substrate after overnight incubation. Set-up: species or system Staphylococcus aureus subsp. aureus str. Newman.

The test system of data set [12] is Staphylococcus aureus. The data set is described as follows: Antibacterial activity against Staphylococcus aureus Newman infected in BALB/c mouse assessed as reduction of bacterial burden in liver at 0.1 mg, ip bid for 3.5 days administered 6 hrs post bacterial infection measured 84 hrs post infection relative to control. Set-up: scale not given: the % may be the effect or the level left.

The target in data set [13] is T4, 4,4'-diapophytoene desaturase (4,4'-diaponeurosporene-forming) (Staphylococcus aureus (strain MW2), UniProt Q8NUQ6).
T4 sequence (Q8NUQ6 whole entry): T1 sequence (whole entry) with R500Q
In words: Inhibition of CrtN in methicillin-resistant Staphylococcus aureus USA400 MW2 assessed as reduction in staphyloxanthin levels after 48 hrs by spectrophotometric method-based pigment inhibition assay. Set-up: species or system Staphylococcus aureus subsp. aureus MW2.

In data set [14] the target is T3, 4,4'-diapophytoene desaturase (4,4'-diaponeurosporene-forming). The data set is described as follows: Inhibition of CrtN in Staphylococcus aureus Newman assessed as reduction in staphyloxanthin levels after 48 hrs by spectrophotometric method-based pigment inhibition assay. Set-up: species or system Staphylococcus aureus subsp. aureus str. Newman.
Data set [15] concerns the target T4, 4,4'-diapophytoene desaturase (4,4'-diaponeurosporene-forming). The data set is described as follows: Inhibition of CrtN in methicillin-resistant Staphylococcus aureus LAC USA300 assessed as reduction in staphyloxanthin levels after 48 hrs by spectrophotometric method-based pigment inhibition assay. Also on record: species or system Staphylococcus aureus subsp. aureus USA300.

Data set [16] can be described thus: Cytotoxicity against HEK293T cells after 72 hrs by CCK8 assay. The following applies: human. It counts as cell-based, HEK-293T.
Data set [17] has as its target T5, 4,4'-diapophytoene desaturase (4,4'-diaponeurosporene-forming) (Staphylococcus aureus (strain Mu50 / ATCC 700699)) (UniProt Q99R76).
T5 sequence (whole entry): T1 sequence (whole entry)
In words: Inhibition of CrtN in Staphylococcus aureus Mu50 assessed as H2O2-induced bacterial death by measuring reduction in bacterial survival at 1 uM preincubated for 24 hrs followed by H2O2 addition measured after 30 mins by serial dilution method. The following applies: Staphylococcus aureus subsp. aureus Mu50.

In a further data set the test system is Nannizzia gypsea. The data set is described as follows: Antifungal activity against Microsporum gypseum after 7 days by broth microdilution method. It counts as functional, organism-based. (Broth dilution looks for growth in wells or tubes with falling amounts of substance.)
The test system of the next data set is Trichophyton rubrum. In words: Antifungal activity against Trichophyton rubrum after 7 days by broth microdilution method. It counts as functional, organism-based.
A short description of data set [18]: Half life in human liver microsomes at 2 uM by LC-MS/MS analysis. It counts as ADME, microsome.
Data set [19] relates to Staphylococcus aureus. The data set is described as follows: Antibacterial activity against vancomycin-intermediate Staphylococcus aureus Mu50 infected in BALB/c mouse assessed as reduction of bacterial burden in liver at 0.4 mg, ip bid for 3.5 days administered 6 hrs post bacterial infection measured 84 hrs post infection. It counts as functional, organism-based.

On to `CN(C/C=C/C=C/c1ccc(C(F)(F)F)cc1)Cc1ccc2c(c1)OCCO2.Cl`, for which the Survival in the data set with Staphylococcus aureus [1] is below 0.5%. The “growth inhibition (GI)” value with Staphylococcus aureus [2] and in the data set on Staphylococcus aureus [7] was “Non-Toxic” throughout. The result in the data set on Staphylococcus aureus [3], in the data set with Staphylococcus aureus [5], in the data set on Staphylococcus aureus [6] and in the data set on Staphylococcus aureus [19] was Active. Besides, the Activity entry in the data set on Staphylococcus aureus [4] is “<=0.75 log10CFU”; in the data set on Staphylococcus aureus [12], 99%. Moreover, the CC50 (usually the concentration that lowers cell viability or growth by half) at 72 h came to 67.8 µM in [8] and 50.3 µM in [16]. Further, the inhibition entry in data set [9], in [10] and in data set [17] was “Active” each time. Moreover, the pIC50 (as a rule, −log10 of the IC50, conventionally taken in molar units) in data set [11] was 6.57; in data set [13], 8.19; in data set [14] it was 8.66; in [15] it was 8.26. For the same molecule, the result in the data set on Nannizzia gypsea and in the data set with Trichophyton rubrum was inactive. The half-life (in general, how long it takes for the measured level to halve) at 2 µM in data set [18] is 7.9 min.
